Experimental data from US20030092638A1, “Protopanaxadiol and protopanaxatriol and their use as anti-cancer agents” (priority 2001, published 2003).
Like-named read-outs stand apart in the source and are kept apart here.

Assays:
MCF7r cells [1] = settings: MCF7r (drug resistant)
Experimental: (§1) Cells were either treated with various concentrations of paclitexal alone or in the presence of 20 μg/ml Rh2, 6 μg/ml PPT or PPD.

MCF7 cells [2] = settings: MCF7 (drug sensitive)
Experimental: as §1

MCF7r cells [3] = assay: cells; settings: Homo sapiens, read-out: IC50 of taxol
Experimental: as §1

MCF7 cells [4] = assay: cells; settings: Homo sapiens, MCF7, read-out: IC50 of taxol
Experimental: as §1

Experimental for B16 melanoma tumor cells: Cells were treated with various concentrations of the compounds and the viability was measured 24 hours post treatment.

Row | IC50 (MCF7r cells [3]) [nM] | IC50 (MCF7 cells [4]) [nM] | Compound | Enhancement of IC50 of taxol versus taxol only (MCF7r cells [1]; compound at 20 μg/ml) | Enhancement of IC50 of taxol versus taxol only (MCF7 cells [2]; compound at 20 μg/ml) | Tumor inhibitory effect (cytotoxicity) compared with Rh2 (B16 melanoma tumor cells) | Enhancement of IC50 of taxol versus taxol only (MCF7r cells [1]; compound at 6 μg/ml) | Enhancement of IC50 of taxol versus taxol only (MCF7 cells [2]; compound at 6 μg/ml)
1 | – | – | CC(C)=CCC[C@](C)(O)[C@H]1CC[C@]2(C)[C@@H]1[C@H](O)C[C@@H]1[C@@]3(C)CC[C@H](O[C@@H]4O[C@H](CO)[C@@H](O)[C@H](O)[C@H]4O)C(C)(C)[C@@H]3CC[C@]12C [Rh2, 3-O-β-D-glucopyranosyl-20(s)-protopanaxadiol, reference compound] | (4470 fold | (3.65 fold | – | – | –
2 | – | – | CC(C)=CCC[C@](C)(O)[C@H]1CC[C@]2(C)[C@@H]1[C@H](O)C[C@@H]1[C@@]3(C)CC[C@H](O)C(C)(C)[C@@H]3[C@@H](O)C[C@]12C [Protopanaxatrial, protopanaxatriol] | – | – | more potent tumor inhibitory effect than Rh2 | (1744 fold | (4.9 fold
3 | 930 | 225 | CC(=O)O[C@H]1C(=O)[C@@]2(C)[C@H]([C@H](OC(=O)c3ccccc3)[C@]3(O)C[C@H](OC(=O)[C@H](O)[C@@H](NC(=O)c4ccccc4)c4ccccc4)C(C)=C1C3(C)C)[C@]1(OC(C)=O)CO[C@@H]1C[C@@H]2O [Taxol, paclitaxel] | – | – | – | – | –
4 | – | – | CC(C)=CCCC(C)(O)[C@H]1CC[C@]2(C)[C@@H]1[C@H](O)C[C@@H]1[C@@]3(C)CC[C@H](O)C(C)(C)[C@@H]3CC[C@]12C (stereo in doubt) [Protopanaxadiol, protopanaxadiol] | – | – | more potent tumor inhibitory effect than Rh2 | (29517 fold | (18 fold
